Reference: patent US11565998B2, “Succinate prodrug, compositions containing the succinate prodrug and uses thereof” (ABLIVA AB, priority 2019, dated 2023)

Legend:
[1] = Caco-2 bioavailability in vitro assay (apparent permeability); type: in vitro ADME; details: human; Caco-2, apical to basolateral, 0.01 mM, pH 7.4, 1 h, 37° C.
Experimental: (§1) The cell penetrance and potential for oral bioavailability of Compound 1 was tested using a standard caco-2 bioavailability in vitro assay (in brief, confluent Caco-2 cells (L1, A. P., 1992; Grass, G. M; et al., 1992, Volpe, D. A., et al., 2001) in a 24 well Corning Costar Transwell format were provided by In Vitro Technologies Inc. (IVT Inc., Baltimore, Md., USA). The apical chamber contained 0.15 mL Hank's balanced buffer solution (HBBS) pH 7.4, 1% DMSO, 0.1 mM Lucifer Yellow. The basal chamber contained 0.6 mL HBBS pH 7.4, 1% DMSO. Controls and tests were incubated at 37° C. in a humidified incubator, shaken at 130 rpm for 1 h. Lucifer Yellow permeates via the paracellular (between the tight junctions) route only, a high Apparent Permeability (Papp) for Lucifer Yellow indicates cellular damage during assay and all such wells were rejected. Propranolol (good passive permeation with no known transporter effects) & acebutalol (poor passive permeation attenuated by active efflux by P-glycoprotein) were used as reference compounds. Compounds were tested in a uni- and bi-directional format by applying compound to the apical or basal chamber (at 0.01 mM). Compounds in the apical or basal chambers were analysed by HPLC-MS. Results were expressed as Apparent Permeability, Papp, (nm/s), in comparison to other succinate prodrugs, including a number from WO2015/155231.

Caco-2 cells = experiment: as above; type: in vitro ADME; details: Caco-2
Experimental: as §1

[2] = Mineral instability (inorganic salts in water); type: physicochemical; details: for Percentage of Compound 1 remaining compared to T = 0: 1 mg/ml, room temperature
Experimental: Compound 1 Batch 14 (2-3 mg) was dissolved in water for injection at room temperature (WFI) (1 mg/ml) containing different sources of minerals commonly found in tap water (with different accompanying counter ions to be able to distinguish differences between the effects of cation or anion) and samples were taken at different time intervals for HPLC analysis.
Mineral sources used in the form of inorganic salts:
CuCl2, CaCl2), NiSO4, CoCl2, NH4Cl, MnCl2, NaF, NaNO3, CuSO4, Ca(NO3)2, AlSO4, CaCO3, (NH4)2CO3.

[3] = Carbonate concentration dependence; type: physicochemical; details: HPLC water, 1 mg/ml
Experimental: Compound 1 Batch 14 (2-3 mg) was dissolved in HPLC grade water (1 mg/ml) containing different concentrations of calcium carbonate and samples were taken at different time intervals for HPLC analysis.

COC(=O)CCC(=O)SCCNC(C)=O [Compound 1, Methyl 3-[(2-acetylaminoethylthio)carbonyl]propionate]
Papp A→B at 1 h, 0.01 mM [1]: 0.412 ×10⁻⁶ cm/s
Apical to Basolateral transfer, rank among prodrugs tested (Caco-2 cells): highest
Percentage of Compound 1 remaining compared to T = 0 ([2]; (NH4)2CO3 in water, batch 14, day 0): 100%
Percentage of Compound 1 remaining compared to T = 0 ([2]; (NH4)2CO3 in water, batch 14, day 7): 91.3%
Percentage of Compound 1 remaining compared to T = 0 ([2]; (NH4)2CO3 in water, batch 14, day 14): 87.4%
Percentage of Compound 1 remaining compared to T = 0 ([2]; AlSO4 in water, batch 14, day 0): 100%
Percentage of Compound 1 remaining compared to T = 0 ([2]; AlSO4 in water, batch 14, day 7): 99.8%
Percentage of Compound 1 remaining compared to T = 0 ([2]; AlSO4 in water, batch 14, day 14): 100%
Percentage of Compound 1 remaining compared to T = 0 ([2]; Ca(NO3)2 in water, batch 14, day 0): 100%
Percentage of Compound 1 remaining compared to T = 0 ([2]; Ca(NO3)2 in water, batch 14, day 7): 99.4%
Percentage of Compound 1 remaining compared to T = 0 ([2]; Ca(NO3)2 in water, batch 14, day 14): 98.9%
Percentage of Compound 1 remaining compared to T = 0 ([2]; CaCO3 in water, batch 14, day 0): 100%
Percentage of Compound 1 remaining compared to T = 0 ([2]; CaCO3 in water, batch 14, day 7): 79.5%
Percentage of Compound 1 remaining compared to T = 0 ([2]; CaCO3 in water, batch 14, day 14): 66.0%
Percentage of Compound 1 remaining compared to T = 0 ([2]; CaCl2 in water, batch 14, day 0): 100%
Percentage of Compound 1 remaining compared to T = 0 ([2]; CaCl2 in water, batch 14, day 7): 100%
Percentage of Compound 1 remaining compared to T = 0 ([2]; CaCl2 in water, batch 14, day 14): 97.9%
Percentage of Compound 1 remaining compared to T = 0 ([2]; CoCl2 in water, batch 14, day 0): 100%
Percentage of Compound 1 remaining compared to T = 0 ([2]; CoCl2 in water, batch 14, day 7): 101%
Percentage of Compound 1 remaining compared to T = 0 ([2]; CoCl2 in water, batch 14, day 14): 101%
Percentage of Compound 1 remaining compared to T = 0 ([2]; CuCl2 in water, batch 14, day 0): 100%
Percentage of Compound 1 remaining compared to T = 0 ([2]; CuCl2 in water, batch 14, day 7): 99.5%
Percentage of Compound 1 remaining compared to T = 0 ([2]; CuCl2 in water, batch 14, day 14): 98.3%
Percentage of Compound 1 remaining compared to T = 0 ([2]; CuSO4 in water, batch 14, day 0): 100%
Percentage of Compound 1 remaining compared to T = 0 ([2]; CuSO4 in water, batch 14, day 7): 100%
Percentage of Compound 1 remaining compared to T = 0 ([2]; CuSO4 in water, batch 14, day 14): 99.4%
Percentage of Compound 1 remaining compared to T = 0 ([2]; MnCl2 in water, batch 14, day 0): 100%
Percentage of Compound 1 remaining compared to T = 0 ([2]; MnCl2 in water, batch 14, day 7): 98.9%
Percentage of Compound 1 remaining compared to T = 0 ([2]; MnCl2 in water, batch 14, day 14): 99.2%
Percentage of Compound 1 remaining compared to T = 0 ([2]; NH4Cl in water, batch 14, day 0): 100%
Percentage of Compound 1 remaining compared to T = 0 ([2]; NH4Cl in water, batch 14, day 7): 101%
Percentage of Compound 1 remaining compared to T = 0 ([2]; NH4Cl in water, batch 14, day 14): 99.8%
Percentage of Compound 1 remaining compared to T = 0 ([2]; NaF in water, batch 14, day 0): 100%
Percentage of Compound 1 remaining compared to T = 0 ([2]; NaF in water, batch 14, day 7): 101%
Percentage of Compound 1 remaining compared to T = 0 ([2]; NaF in water, batch 14, day 14): 100%
Percentage of Compound 1 remaining compared to T = 0 ([2]; NaNO3 in water, batch 14, day 0): 100%
Percentage of Compound 1 remaining compared to T = 0 ([2]; NaNO3 in water, batch 14, day 7): 99.2%
Percentage of Compound 1 remaining compared to T = 0 ([2]; NaNO3 in water, batch 14, day 14): 99.4%
Percentage of Compound 1 remaining compared to T = 0 ([2]; NiSO4 in water, batch 14, day 0): 100%
Percentage of Compound 1 remaining compared to T = 0 ([2]; NiSO4 in water, batch 14, day 7): 98.4%
Percentage of Compound 1 remaining compared to T = 0 ([2]; NiSO4 in water, batch 14, day 14): 99.1%
Percentage of Compound 1 remaining compared to T = 0 ([2]; WFl, batch 14, day 0): 100%
Percentage of Compound 1 remaining compared to T = 0 ([2]; WFl, batch 14, day 7): 98.7%
Percentage of Compound 1 remaining compared to T = 0 ([2]; WFl, batch 14, day 14): 97.7%
degradation in aqueous solution with carbonate ions ([2]; vs other mineral salts): degrades more rapidly
Percentage of Compound 1 remaining compared to T = 0 ([3]; CaCO3 (0 mM), batch 14, day 0): 100%
Percentage of Compound 1 remaining compared to T = 0 ([3]; CaCO3 (0 mM), batch 14, day 7): 98.7%
Percentage of Compound 1 remaining compared to T = 0 ([3]; CaCO3 (0 mM), batch 14, day 14): 98.6%
Percentage of Compound 1 remaining compared to T = 0 ([3]; CaCO3 (0.425 mM), batch 14, day 0): 100%
Percentage of Compound 1 remaining compared to T = 0 ([3]; CaCO3 (0.425 mM), batch 14, day 7): 98.1%
Percentage of Compound 1 remaining compared to T = 0 ([3]; CaCO3 (0.425 mM), batch 14, day 14): 98.4%
Percentage of Compound 1 remaining compared to T = 0 ([3]; CaCO3 (0.85 mM), batch 14, day 0): 100%
Percentage of Compound 1 remaining compared to T = 0 ([3]; CaCO3 (0.85 mM), batch 14, day 7): 97.8%
Percentage of Compound 1 remaining compared to T = 0 ([3]; CaCO3 (0.85 mM), batch 14, day 14): 97.1%
Percentage of Compound 1 remaining compared to T = 0 ([3]; CaCO3 (1.7 mM), batch 14, day 0): 100%
Percentage of Compound 1 remaining compared to T = 0 ([3]; CaCO3 (1.7 mM), batch 14, day 7): 93.8%
Percentage of Compound 1 remaining compared to T = 0 ([3]; CaCO3 (1.7 mM), batch 14, day 14): 90.8%
Percentage of Compound 1 remaining compared to T = 0 ([3]; CaCO3 (3.4 mM), batch 14, day 0): 100%
Percentage of Compound 1 remaining compared to T = 0 ([3]; CaCO3 (3.4 mM), batch 14, day 7): 83.4%
Percentage of Compound 1 remaining compared to T = 0 ([3]; CaCO3 (3.4 mM), batch 14, day 14): 71.4%
